From article PMC10141580, “Cyclic Dichalcogenides Extend the Reach of Bioreductive Prodrugs to Harness Thiol/Disulfide Oxidoreductases: Applications to seco-Duocarmycins Targeting the Thioredoxin System” (ACS Central Science, 2023)
“And” between values parts separate entries of the source, which are not always exact repeats. Equal values may be shown once. Read-outs that look alike come from different tables or passages of the source.

Tested on: panel of 140 standard cancer cell lines
Experiment: ProliFiler-140 cancer cell line screen (CellTiterGlo, 72 h)
Format: cell-based
Procedure: Incubations were performed for 72 h before automated viability readout with CellTiterGlo (Figure 8).
End of Figure S11 (part 5 of 5): ProliFiler-140 cancer cell line screening for cytotoxicity of the prodrugs.
8-data-point dose response curves from CellTiter-Glo® viability readout.
ProliFiler-140 cell line panel part V

Structure (SMILES): COc1cc2cc(C(=O)N3C[C@@H](CCl)c4c3cc(OC(=O)N(CCC(=O)N3CCN(C)CC3)[C@H]3CCSSC3)c3ccccc43)[nH]c2c(OC)c1OC [P-SS60-CBI-TMI]
- Reductive Activation Index (MKN-1 (Stomach)): 7.3
- IC50 (MKN-1 (Stomach), read-out: IC50 [M] (ProliFiler-140)): 2.1e-07 M
- Reductive Activation Index (MKN-45 (Stomach)): 5.36
- IC50 (MKN-45 (Stomach), read-out: IC50 [M] (ProliFiler-140)): 9.08e-08 M and 9.1e-08 M
- IC50 (MOLM-13 (Blood), read-out: IC50 [M] (ProliFiler-140)): 9.1e-09 M and 9.12e-09 M
- IC50 (MOLT-4 (Blood), read-out: IC50 [M] (ProliFiler-140)): 1.3e-08 M and 1.29e-08 M
- IC50 (MOLT-4, read-out: IC50): 1.3e-08 M
- IC50 (MV4-11 (Blood), read-out: IC50 [M] (ProliFiler-140)): 2.8e-09 M and 2.76e-09 M
- Reductive Activation Index (Mia PaCA 2 (Pancreas)): 5.48
- IC50 (Mia PaCA 2 (Pancreas), read-out: IC50 [M] (ProliFiler-140)): 6.84e-08 M and 6.8e-08 M
- Reductive Activation Index (NALM-6 (Blood)): 5.7
- IC50 (NALM-6 (Blood), read-out: IC50 [M] (ProliFiler-140)): 9.79e-09 M and 9.8e-09 M
- Reductive Activation Index (NCI-H82 (Lung)): 5.0
- IC50 (NCI-H82 (Lung), read-out: IC50 [M] (ProliFiler-140)): 1.5e-07 M and 1.49e-07 M
- IC50 (NCI-H292 (Lung), read-out: IC50 [M] (ProliFiler-140)): 4.8e-08 M and 4.84e-08 M
- Reductive Activation Index (NCI-H441 (Lung)): 5.40
- IC50 (NCI-H441 (Lung), read-out: IC50 [M] (ProliFiler-140)): 5.44e-08 M and 5.4e-08 M
- Reductive Activation Index (NCI-H838 (Lung)): 6.2
- IC50 (NCI-H838 (Lung), read-out: IC50 [M] (ProliFiler-140)): 1.2e-07 M and 1.21e-07 M
- Reductive Activation Index (NCI-H1048 (Lung)): 7.4
- IC50 (NCI-H1048 (Lung), read-out: IC50 [M] (ProliFiler-140)): 8e-09 M and 8.01e-09 M
- IC50 (NCI-H1437 (Lung), read-out: IC50 [M] (ProliFiler-140)): 5.21e-08 M and 5.2e-08 M
- Reductive Activation Index (NCI-H1563 (Lung)): 8.6
- IC50 (NCI-H1563 (Lung), read-out: IC50 [M] (ProliFiler-140)): 2e-07 M and 1.97e-07 M
- Reductive Activation Index (NCI-H1573 (Lung)): 6.1
- IC50 (NCI-H1573 (Lung), read-out: IC50 [M] (ProliFiler-140)): 1.8e-07 M and 1.76e-07 M
- IC50 (NCI-H1581 (Lung), read-out: IC50 [M] (ProliFiler-140)): 4.23e-08 M and 4.2e-08 M
- Reductive Activation Index (NCI-H1703 (Lung)): 6.7
- IC50 (NCI-H1703 (Lung), read-out: IC50 [M] (ProliFiler-140)): 1.2e-07 M and 1.21e-07 M
- Reductive Activation Index (NCI-H1838 (Lung)): 9.6
- IC50 (NCI-H1838 (Lung), read-out: IC50 [M] (ProliFiler-140)): 8.5e-08 M and 8.53e-08 M
- IC50 (NCI-H2009 (Lung), read-out: IC50 [M] (ProliFiler-140)): 6.17e-08 M and 6.2e-08 M
- IC50 (NCI-H2110 (Lung), read-out: IC50 [M] (ProliFiler-140)): 2.7e-08 M and 2.67e-08 M
- IC50 (NCI-H2286 (Lung), read-out: IC50 [M] (ProliFiler-140)): 1.9e-08 M and 1.91e-08 M
- Reductive Activation Index (NCI-N87 (Stomach)): 8.1
- IC50 (NCI-N87 (Stomach), read-out: IC50 [M] (ProliFiler-140)): 1.4e-07 M and 1.41e-07 M
- IC50 (OCI-AML3 (Blood), read-out: IC50 [M] (ProliFiler-140)): 3.3e-08 M and 3.29e-08 M
- Reductive Activation Index (OCI-AML5 (Blood)): 3.9 and 3.93
- IC50 (OCI-AML5 (Blood), read-out: IC50 [M] (ProliFiler-140)): 8.6e-09 M and 8.62e-09 M
- Reductive Activation Index (OCI-LY19 (Blood)): 3.74
- IC50 (OCI-LY19 (Blood), read-out: IC50 [M] (ProliFiler-140)): 4.11e-09 M and 4.1e-09 M
- Reductive Activation Index (OPM-2 (Blood)): 5.41
- IC50 (OPM-2 (Blood), read-out: IC50 [M] (ProliFiler-140)): 1.22e-07 M and 1.2e-07 M
- Reductive Activation Index (OV56 (Ovary)): 3.10
- IC50 (OV56 (Ovary), read-out: IC50 [M] (ProliFiler-140)): 6.51e-08 M and 6.5e-08 M
- Reductive Activation Index (OVCAR-3 (Ovary)): 8.7
- IC50 (OVCAR-3 (Ovary), read-out: IC50 [M] (ProliFiler-140)): 1.2e-07 M and 1.17e-07 M
- IC50 (OVCAR-3, read-out: IC50): 1.2e-07 M
- Reductive Activation Index (OVK18 (Ovary)): 4.66
- IC50 (OVK18 (Ovary), read-out: IC50 [M] (ProliFiler-140)): 4.29e-08 M and 4.3e-08 M
- IC50 (P31/FUJ (Blood), read-out: IC50 [M] (ProliFiler-140)): 3.7e-08 M and 3.66e-08 M
- Reductive Activation Index (PANC-1 (Pancreas)): 5.4
- IC50 (PANC-1 (Pancreas), read-out: IC50 [M] (ProliFiler-140)): 2.5e-07 M and 2.53e-07 M
- IC50 (PC3 (Prostate), read-out: IC50 [M] (ProliFiler-140)): 5.8e-08 M
- IC50 (PC3, read-out: IC50): 5.8e-08 M
- IC50 (PC-9 (Lung), read-out: IC50 [M] (ProliFiler-140)): 1.7e-08 M
- Reductive Activation Index (RERF-LC-Ad2 (Lung)): 4.2 and 4.21
- IC50 (RERF-LC-Ad2 (Lung), read-out: IC50 [M] (ProliFiler-140)): 1.9e-07 M and 1.86e-07 M
- IC50 (RERF-LC-MS (Lung), read-out: IC50 [M] (ProliFiler-140)): 6.44e-08 M and 6.4e-08 M
- IC50 (RKO (Colon), read-out: IC50 [M] (ProliFiler-140)): 4.51e-08 M and 4.5e-08 M
- Reductive Activation Index (RL95-2 (Endometrium)): 4.84
- IC50 (RL95-2 (Endometrium), read-out: IC50 [M] (ProliFiler-140)): 1.54e-07 M and 1.5e-07 M
- IC50 (RPMI 8226 (Blood), read-out: IC50 [M] (ProliFiler-140)): 3.86e-08 M and 3.9e-08 M
- IC50 (RPMI 8226, read-out: IC50): 3.9e-08 M
- IC50 (SCH (Stomach), read-out: IC50 [M] (ProliFiler-140)): 5.2e-08 M and 5.16e-08 M
- Reductive Activation Index (SCLC-21H (Lung)): 4.91
- IC50 (SCLC-21H (Lung), read-out: IC50 [M] (ProliFiler-140)): 3.21e-08 M and 3.2e-08 M
- Reductive Activation Index (SJSA-1 (Bone)): 15.99
- IC50 (SJSA-1 (Bone), read-out: IC50 [M] (ProliFiler-140)): 2.37e-08 M and 2.4e-08 M
- IC50 (SK-BR-3 (Breast), read-out: IC50 [M] (ProliFiler-140)): 7.4e-08 M and 7.39e-08 M
- IC50 (SK-ES-1 (Bone), read-out: IC50 [M] (ProliFiler-140)): 5.66e-09 M and 5.7e-09 M
- IC50 (SK-LU-1 (Lung), read-out: IC50 [M] (ProliFiler-140)): 2.7e-08 M
- Reductive Activation Index (SK-MEL-3 (Skin)): 5.8
- IC50 (SK-MEL-3 (Skin), read-out: IC50 [M] (ProliFiler-140)): 1.8e-07 M and 1.77e-07 M
- Reductive Activation Index (SK-N-FI (Brain)): 5.68
- IC50 (SK-N-FI (Brain), read-out: IC50 [M] (ProliFiler-140)): 1.2e-07 M
- IC50 (SK-N-MC (Brain), read-out: IC50 [M] (ProliFiler-140)): 2.7e-09 M
- Reductive Activation Index (SK-N-SH (Brain)): 5.1 and 5.09
- IC50 (SK-N-SH (Brain), read-out: IC50 [M] (ProliFiler-140)): 1.5e-07 M and 1.46e-07 M
- IC50 (SK-OV3 (Ovary), read-out: IC50 [M] (ProliFiler-140)): 6.17e-08 M and 6.2e-08 M
- IC50 (SK-OV3, read-out: IC50): 6.2e-08 M
- Reductive Activation Index (SNU840 (Ovary)): 1.83
- IC50 (SNU840 (Ovary), read-out: IC50 [M] (ProliFiler-140)): 3.82e-08 M and 3.8e-08 M
- IC50 (SNU-1 (Stomach), read-out: IC50 [M] (ProliFiler-140)): 3e-08 M
- IC50 (SNU-16 (Stomach), read-out: IC50 [M] (ProliFiler-140)): 1.23e-07 M and 1.2e-07 M
- Reductive Activation Index (SNU-216 (Stomach)): 6.77 and 6.8
- IC50 (SNU-216 (Stomach), read-out: IC50 [M] (ProliFiler-140)): 2.72e-07 M and 2.7e-07 M
- Reductive Activation Index (SU-DHL-5 (Blood)): 6.4
- IC50 (SU-DHL-5 (Blood), read-out: IC50 [M] (ProliFiler-140)): 7.8e-09 M and 7.78e-09 M
- Reductive Activation Index (SW480 (Colon)): 5.10
- IC50 (SW480 (Colon), read-out: IC50 [M] (ProliFiler-140)): 6.5e-08 M
- Reductive Activation Index (SW620 (Colon)): 5.01
- IC50 (SW620 (Colon), read-out: IC50 [M] (ProliFiler-140)): 1.4e-07 M
- IC50 (SW620, read-out: IC50): 1.4e-07 M
- Reductive Activation Index (SW948 (Colon)): 5.26
- IC50 (SW948 (Colon), read-out: IC50 [M] (ProliFiler-140)): 1.29e-07 M and 1.3e-07 M
- IC50 (SW-1783 (Brain), read-out: IC50 [M] (ProliFiler-140)): 6.68e-08 M and 6.7e-08 M
- Reductive Activation Index (Saos-2 EC (Bone)): 6.02
- IC50 (Saos-2 EC (Bone), read-out: IC50 [M] (ProliFiler-140)): 3.88e-08 M and 3.9e-08 M
- Reductive Activation Index (SiHa (Ovary)): 5.51
- IC50 (SiHa (Ovary), read-out: IC50 [M] (ProliFiler-140)): 1.11e-07 M and 1.1e-07 M
- Reductive Activation Index (T84 (Colon)): 5.12 and 5.1
- IC50 (T84 (Colon), read-out: IC50 [M] (ProliFiler-140)): 1.77e-07 M and 1.8e-07 M
- IC50 (T98G (Brain), read-out: IC50 [M] (ProliFiler-140)): 8.64e-08 M and 8.6e-08 M
- Reductive Activation Index (T-47D (Breast)): 4.5
- IC50 (T-47D (Breast), read-out: IC50 [M] (ProliFiler-140)): 2.3e-07 M and 2.31e-07 M
- IC50 (T-47D, read-out: IC50): 2.3e-07 M
- Reductive Activation Index (U2OS (Bone)): 5.36
- IC50 (U2OS (Bone), read-out: IC50 [M] (ProliFiler-140)): 2.44e-08 M and 2.4e-08 M
- Reductive Activation Index (U87MG (Brain)): 5.4
- IC50 (U87MG (Brain), read-out: IC50 [M] (ProliFiler-140)): 2.3e-07 M and 2.25e-07 M
- Reductive Activation Index (U118MG (Brain)): 2.81
- IC50 (U118MG (Brain), read-out: IC50 [M] (ProliFiler-140)): 1.4e-07 M
- Reductive Activation Index (U251MG (Brain)): 11
- IC50 (U251MG (Brain), read-out: IC50 [M] (ProliFiler-140)): 1.9e-07 M and 1.88e-07 M
- IC50 (U-266 (Blood), read-out: IC50 [M] (ProliFiler-140)): 2.23e-08 M and 2.2e-08 M
- Reductive Activation Index (U-937 (Blood)): 4.50
- IC50 (U-937 (Blood), read-out: IC50 [M] (ProliFiler-140)): 1.64e-08 M and 1.6e-08 M
- Reductive Activation Index (ZR-75-1 (Breast)): 6.4
- IC50 (ZR-75-1 (Breast), read-out: IC50 [M] (ProliFiler-140)): 2.22e-07 M and 2.2e-07 M
- IC50 (read-out: IC50 [M] (ProliFiler-140)): 1.74e-08 M and 1.7e-08 M
